# Laboratory results from patent publication US6664231B1, “Anti-fungal peptides” (priority 1993, dated 2003).
# Like-named read-outs stand apart in the source and are kept apart here.
# Assays:
# [1] = test system: Trychophyton rubrum ATCC 28188; assay: organism not typed; type: cell-based
# Method: (§1) The anti-fungal activity of Domain III derived peptides was evaluated against a variety of fungal species, including species of Candida. Cryptococcus, Fusarium, Trichophyton, and Aspergillus, by an additional assay protocol utilizing Alamar Blue. Alamar Blue is an indicator dye formulated to measure quantitatively the proliferation of a variety of human or animal cells, bacteria, or fungi. It consists of an oxidation-reduction (REDOX) indicator that yields a colorimetric change in response to metabolic activity. For these experiments, species of Candida and Cryptococcus were grown in Sabouraud's dextrose broth (SDB) overnight. Strains of filamentous fungi (Aspergilius, Fusanum, Trichophyton) were obtained by irrigation of a confluent culture from a petri dish. Cells were washed and adjusted to a concentration of 5.0×10^3/mL in fresh SDB. […] Controls included amphotericin B, fluconazole, ketoconazole and griseofulvin. Antifungal drugs were also diluted in the same manner. Assays were performed in 96-well microuiter plates. […] The wells to be plated were determined by OD590 readings. The lowest concentration of peptide which maintained the blue color (or OD reading) of the blank was chosen along with the next two higher concentrations. Plates were allowed to grow for 18-48 hours depending on the rate of growth of each fungus. Minimal fungicidal activity (MFC) was determined as a 99.9% killing of the starting inoculum.
# [2] = test system: Candida glabrata ATCC 2001; assay: microbe, parasite or virus in culture; type: cell-based
# Method: as §1
# [3] = test system: Candida parapsilosis ATCC 22019; assay: microbe, parasite or virus in culture; type: cell-based
# Method: as §1
# [4] = test system: Aspergillus niger ATCC 16404; assay: microbe, parasite or virus in culture; type: cell-based
# Method: as §1
# [5] = test system: Fusarium solani ATCC 36031; assay: microbe, parasite or virus in culture; type: cell-based
# Method: as §1
# [6] = test system: Cryptococcus neoformans ATCC 13690; assay: microbe, parasite or virus in culture; type: cell-based
# Method: as §1
# [7] = test system: Candida albicans (SLU-1 and ATCC strains); assay: microbe, parasite or virus in culture; type: cell-based
# Method: as §1
# Aspergillus ATCC 13073 = assay: microbe, parasite or virus in culture; type: cell-based
# Method: as §1
# Candida albicans SLU-1 = assay: Survival of cyclosporin A-immunosuppressed mice systemically infected with Candida albicans; type: in vivo, mouse; conditions: cyclosporin A 10 mg/kg i.p.; 2×10^5 Candida cells; peptide 10 mg/kg, 6 doses; FIG. 7
# Method: Studies were also performed to determine the effectiveness of representative anti-fungal peptides in cyclosporin A-immunosuppressed mice systemically infected with Candida albicans SLU-1. Groups (15 animals/group) of 9 week-old male DBA/2J mice were immunosuppressed by pretreatment with 10 mg/kg (Day-1) of cyclosporin A administered by intraperitoneal injection. One day later (Day 0), the mice were inoculated with 2×10^5 Candida cells by intravenous injection in the tail vein. Immediately after fungal challenge, the mice were treated with a 0.1 mL volume of 10 mg/kg XMP.284, 10 mg/kg XMP.127, or PBS as a control. Cyclosporin A injections were repeated at Day 1. Day 3. Day 7, and Day 9. XMP.284, XMP.127 or PBS injections were repeated at Day 2, Day 4, Day 6, Day 8 and Day 10. […]. […] However.
# in vitro = in vitro ADME, rat or human serum; conditions: serum, half-life of peptide in serum as detected by HPLC analysis; read-out: HPLC Peptide in Serum t ½ (converted)
# Procedure, shortened: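 Peptide (1 mg/mL solution) mixed with an equal volume of rat or human serum at 37° C; samples taken at 0, 1, 2 and 4 h. Peptide recovered by C-18 solid phase extraction and quantified by C-8 reverse-phase HPLC with detection at 214 nm.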
molecule,measurement,setting,value
"C[C@@H]1[C@H](O)[C@@H](C)/C=C/C=C/C=C/C=C/C=C/C=C/C=C/[C@H](O[C@@H]2O[C@H](C)[C@@H](O)[C@H](N)[C@@H]2O)C[C@@H]2O[C@](O)(C[C@@H](O)C[C@@H](O)[C@H](O)CC[C@@H](O)C[C@@H](O)CC(=O)O[C@H]1C)C[C@H](O)[C@H]2C(=O)O [Amphotericin B, amphotericin B, reference compound]","Minimum Fungicidal Concentration, Trychophyton rubrum ATCC 28188",[1],0.32 µg/mL
same,"Minimum Fungicidal Concentration, Candida glabrata ATCC 2001",[2],0.32 µg/mL
same,"Minimum Fungicidal Concentration, Candida parapsilosis ATCC 22019",[3],5.0 µg/mL
same,"Minimum Fungicidal Concentration, Aspergillus niger ATCC 16404",[4],5.00 µg/mL
same,"Minimum Fungicidal Concentration, Fusarium solani ATCC 36031",[5],0.62 µg/mL
same,"Minimum Fungicidal Concentration, Cryptococcus neoformans ATCC 13690",[6],1.25 µg/mL
same,"Minimum Fungicidal Concentration, Candida albicans ATCC 10231",[7]; strain ATCC 10231,0.63 µg/mL
same,"Minimum Fungicidal Concentration, Candida albicans ATCC 18840",[7]; strain ATCC 18840,1.25 µg/mL
same,"Minimum Fungicidal Concentration, Candida albicans ATCC 26555",[7]; strain ATCC 26555,1.25 µg/mL
same,"Minimum Fungicidal Concentration, Candida albicans ATCC 44808",[7]; strain ATCC 44808,1.25 µg/mL
same,"Minimum Fungicidal Concentration, Candida albicans ATCC 90028",[7]; strain ATCC 90028,1.25 µg/mL
same,"Minimum Fungicidal Concentration, Candida albicans SLU-1",[7]; strain SLU-1,0.63 µg/mL
same,"Minimum Fungicidal Concentration, Aspergillus ATCC 13073",Aspergillus ATCC 13073,12.50 µg/mL
same,"protection against infection, survival compared with PBS controls",Candida albicans SLU-1,protected
H-KSKVGWLIQLFHKK-NH2 [XMP.13],half-life at 0.5 mg/mL,in vitro,2.5 h
H-SKVKWLIQLFHKK-NH2 [XMP.284],"Minimum Fungicidal Concentration, Trychophyton rubrum ATCC 28188",[1]; ATCC 28188,5.0 µg/mL
same,"Minimum Fungicidal Concentration, Candida glabrata ATCC 2001",[2]; ATCC 2001,>10.0 µg/mL
same,"Minimum Fungicidal Concentration, Candida parapsilosis ATCC 22019",[3]; ATCC 22019,>10.0 µg/mL
same,"Minimum Fungicidal Concentration, Aspergillus niger ATCC 16404",[4]; ATCC 16404,2.5 µg/mL
same,"Minimum Fungicidal Concentration, Fusarium solani ATCC 36031",[5]; ATCC 36031,0.31 µg/mL
same,"Minimum Fungicidal Concentration, Cryptococcus neoformans ATCC 13690",[6]; ATCC 13690,0.63 µg/mL
same,"Minimum Fungicidal Concentration, Candida albicans ATCC 10231",[7]; SLU-1 and ATCC strains,5.0 µg/mL
same,"Minimum Fungicidal Concentration, Candida albicans ATCC 18840",[7]; SLU-1 and ATCC strains,2.5 µg/mL
same,"Minimum Fungicidal Concentration, Candida albicans ATCC 26555",[7]; SLU-1 and ATCC strains,1.25 µg/mL
same,"Minimum Fungicidal Concentration, Candida albicans ATCC 44808",[7]; SLU-1 and ATCC strains,1.25 µg/mL
same,"Minimum Fungicidal Concentration, Candida albicans ATCC 90028",[7]; SLU-1 and ATCC strains,1.25 µg/mL
same,"Minimum Fungicidal Concentration, Candida albicans SLU-1",[7]; SLU-1 and ATCC strains,2.50 µg/mL
same,"Minimum Fungicidal Concentration, Aspergillus ATCC 13073",Aspergillus ATCC 13073; ATCC 13073,12.50 µg/mL
same,half-life at 0.5 mg/mL,in vitro,4.2 h
same,"protection against infection, survival compared with PBS controls",Candida albicans SLU-1,provided protection
